For 5 compounds, Ki results are on record in patent US12559529B2, “NPY2 receptor agonists” (Boehringer Ingelheim International GmbH, priority 2019, dated 2026).

In general, Ki refers to the equilibrium dissociation constant of an inhibitor or competing ligand from its target.

Each structure is given as a SMILES string. *1 amine or outer side, *2 acyl side, *3 side chain or, on linkers, in order; H or OH if unused. Where a SMILES comes first, the peptide text is derived from it. Side-chain parts run from the residue outwards. The star is where a group is joined. C18 diacid = O=C(O)CCCCCCCCCCCCCCCCC(=O)*; γGlu = O=C(O)[C@H](CCC(=O)[*:2])N[*:1]; Isovaleryl = CC(C)CC(=O)*; AEEA = NCCOCCOCC(=O)O

For the test, the target named is T1, Human Neuropeptide Y2 Receptor (Homo sapiens, UniProt P49146).
T1 construct: purchased CHEMICON HTS066M
T1 sequence (P49146 1-381): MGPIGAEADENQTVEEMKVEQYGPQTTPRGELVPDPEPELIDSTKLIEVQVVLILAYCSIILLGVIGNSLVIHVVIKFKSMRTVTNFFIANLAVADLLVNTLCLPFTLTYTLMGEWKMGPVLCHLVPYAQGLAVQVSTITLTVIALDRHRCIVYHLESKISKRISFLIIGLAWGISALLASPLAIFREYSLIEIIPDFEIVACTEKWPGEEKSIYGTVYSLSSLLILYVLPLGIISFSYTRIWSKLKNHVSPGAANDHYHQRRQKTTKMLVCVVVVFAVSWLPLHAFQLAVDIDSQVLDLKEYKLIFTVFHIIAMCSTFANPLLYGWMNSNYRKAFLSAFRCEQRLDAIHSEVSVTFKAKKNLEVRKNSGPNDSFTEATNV
In words: Radioligand binding competition assay (RLB). Conditions: Table 3; human 125I-PYY (1-36) 0.02 nM, Y2 receptor membranes; read-out: Ki. In a few lines:
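IC50 values come from nonlinear regression of sigmoidal dose-response curves of filter-bound radioactivity. Peptides competed with radioligand at human Y2 receptor membranes (0.5 μg protein/well) for 2 h at room temperature in pH 7.4 HEPES buffer containing Mg2+, Ca2+ and 0.2% ovalbumin.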
Take `CC(C)CC(=O)N[C@@H](C)C(=O)N1CCC[C@H]1C(=O)N[C@@H](C)C(=O)N[C@@H](CCCCNC(=O)COCCOCCNC(=O)COCCOCCNC(=O)CC[C@H](NC(=O)CCCCCCCCCCCCCCCCC(=O)O)C(=O)O)C(=O)N1CCC[C@H]1C(=O)N1CCC[C@H]1C(=O)N[C@@H](CCC(=O)O)C(=O)N[C@@H](CC(=O)O)C(=O)N[C@@H](C)C(=O)N[C@@H](CO)C(=O)N1CCC[C@H]1C(=O)N[C@@H](CCC(=O)O)C(=O)N[C@@H](CCC(=O)O)C(=O)N[C@@H](CC(C)C)C(=O)N[C@@H](CCC(N)=O)C(=O)N[C@@H](CCCNC(=N)N)C(=O)N[C@@H](Cc1ccc(O)cc1)C(=O)N[C@@H](Cc1ccc(O)cc1)C(=O)N[C@H](C(=O)N[C@@H](CCC(=O)O)C(=O)N[C@@H](CC(C)C)C(=O)N[C@@H](CCCNC(=N)N)C(=O)N[C@@H](Cc1c[nH]cn1)C(=O)N[C@@H](Cc1ccc(O)cc1)C(=O)N[C@@H](Cc1ccc(O)cc1)C(=O)N[C@@H](CC(N)=O)C(=O)N[C@@H](Cc1c[nH]c2ccccc12)C(=O)N[C@@H](CC(C)C)C(=O)N[C@H](C(=O)N[C@@H](CCCNC(=N)N)C(=O)N[C@@H](CCC(N)=O)C(=O)N[C@@H](CCCNC(=N)N)C(=O)N[C@@H](Cc1ccc(O)cc1)C(N)=O)[C@@H](C)O)C(C)C` [Compound 232, N{alpha-4}-(3-methylbutanoyl)-N{epsilon-7}-[2-(2-{2-[2-(2-{2-[(4S)-4-carboxy-4-(17-carboxyheptadecanamido)butanamido]ethoxy}ethoxy)acetamido]ethoxy}ethoxy)acetamido]-[4A,6A,7K,9P,18Q,22V,23E,28Y,30W,31L]hPYY (4-36)]: the Ki was 0.81 nM. Consider `CC(C)CC(=O)N[C@@H](C)C(=O)N1CCC[C@H]1C(=O)N[C@@H](CCC(=O)O)C(=O)N[C@@H](CCCCNC(=O)COCCOCCNC(=O)COCCOCCNC(=O)CC[C@H](NC(=O)CCCCCCCCCCCCCCCCC(=O)O)C(=O)O)C(=O)N1CCC[C@H]1C(=O)N[C@@H](CCC(=O)O)C(=O)N[C@@H](CCC(=O)O)C(=O)N[C@@H](CC(=O)O)C(=O)N[C@@H](C)C(=O)N[C@@H](CO)C(=O)N1CCC[C@H]1C(=O)N[C@@H](CCC(=O)O)C(=O)N[C@@H](CCC(=O)O)C(=O)N[C@@H](CC(C)C)C(=O)N[C@@H](CCC(N)=O)C(=O)N[C@@H](CCCNC(=N)N)C(=O)N[C@@H](Cc1ccc(O)cc1)C(=O)N[C@@H](Cc1ccc(O)cc1)C(=O)N[C@H](C(=O)N[C@@H](CO)C(=O)N[C@H](C(=O)N[C@@H](CCCNC(=N)N)C(=O)N[C@@H](Cc1c[nH]cn1)C(=O)N[C@@H](Cc1ccc(O)cc1)C(=O)N[C@@H](Cc1ccc(O)cc1)C(=O)N[C@@H](CC(N)=O)C(=O)N[C@@H](Cc1c[nH]c2ccccc12)C(=O)N[C@@H](CC(C)C)C(=O)N[C@H](C(=O)N[C@@H](CCCNC(=N)N)C(=O)N[C@@H](CCC(N)=O)C(=O)N[C@@H](CCCNC(=N)N)C(=O)N[C@@H](Cc1ccc(O)cc1)C(N)=O)[C@@H](C)O)[C@@H](C)O)C(C)C` [Compound 34, N{alpha-4}-(3-methylbutanoyl)-N{epsilon-7}-[2-(2-{2-[2-(2-{2-[(4S)-4-carboxy-4-(17-carboxyheptadecanamido)butanamido]ethoxy}ethoxy)acetamido]ethoxy}ethoxy)acetamido]-[4A,7K,9E,18Q,22V,24T,28Y,30W,31L]hPYY (4-36)], for which the Ki was 6.4 nM. For the compound `CC(C)CC(=O)N[C@@H](C)C(=O)N1CCC[C@H]1C(=O)N[C@@H](CCC(=O)O)C(=O)N[C@@H](CCCCNC(=O)COCCOCCNC(=O)COCCOCCNC(=O)CC[C@H](NC(=O)CCCCCCCCCCCCCCCCC(=O)O)C(=O)O)C(=O)N1CCC[C@H]1C(=O)N[C@@H](CCC(=O)O)C(=O)N[C@@H](CCC(=O)O)C(=O)N[C@@H](CC(=O)O)C(=O)N[C@@H](C)C(=O)N[C@@H](CCC(N)=O)C(=O)N1CCC[C@H]1C(=O)N[C@@H](CCC(=O)O)C(=O)N[C@@H](CCC(=O)O)C(=O)N[C@@H](CC(C)C)C(=O)N[C@@H](CCC(N)=O)C(=O)N[C@@H](CCC(=O)O)C(=O)N[C@@H](Cc1ccc(O)cc1)C(=O)N[C@@H](Cc1ccc(O)cc1)C(=O)N[C@H](C(=O)N[C@@H](CO)C(=O)N[C@@H](CC(C)C)C(=O)N[C@@H](CCCNC(=N)N)C(=O)N[C@@H](Cc1c[nH]cn1)C(=O)N[C@@H](Cc1ccc(O)cc1)C(=O)N[C@@H](Cc1ccc(O)cc1)C(=O)N[C@@H](CC(N)=O)C(=O)N[C@@H](Cc1c[nH]c2ccccc12)C(=O)N[C@@H](CC(C)C)C(=O)N[C@H](C(=O)N[C@@H](CCCNC(=N)N)C(=O)N[C@@H](CCC(N)=O)C(=O)N[C@@H](CCCNC(=N)N)C(=O)N[C@@H](Cc1ccc(O)cc1)C(N)=O)[C@@H](C)O)C(C)C` [Compound 1, N{alpha-4}-(3-methylbutanoyl)-N{epsilon-7}-[2-(2-{2-[2-(2-{2-[(4S)-4-carboxy-4-(17-carboxyheptadecanamido)butanamido]ethoxy}ethoxy)acetamido]ethoxy}ethoxy)acetamido]-[4A,7K,9E,13Q,18Q,19E,22V,28Y,30W,31L]hPYY (4-36)] (Isovaleryl-APEK([AEEA-AEEA-γGlu-C18 diacid])PEEDAQPEELQEYYVSLRHYYNWLTRQRY-NH2), the Ki is 2.5 nM.

In the case of `CC(C)CC(=O)N[C@@H](C)C(=O)N1CCC[C@H]1C(=O)N[C@@H](CCC(=O)O)C(=O)N[C@@H](CCCCNC(=O)COCCOCCNC(=O)COCCOCCNC(=O)CC[C@H](NC(=O)CCCCCCCCCCCCCCCCC(=O)O)C(=O)O)C(=O)N1CCC[C@H]1C(=O)N[C@@H](CCC(=O)O)C(=O)N[C@@H](CCC(=O)O)C(=O)N[C@@H](CC(=O)O)C(=O)N[C@@H](C)C(=O)N[C@@H](CO)C(=O)N[C@@H](CCC(=O)O)C(=O)N[C@@H](CCC(=O)O)C(=O)N[C@@H](CCC(=O)O)C(=O)N[C@@H](CC(C)C)C(=O)N[C@@H](CCC(N)=O)C(=O)N[C@@H](CCCNC(=N)N)C(=O)N[C@@H](Cc1ccc(O)cc1)C(=O)N[C@@H](Cc1ccc(O)cc1)C(=O)N[C@H](C(=O)N[C@@H](CCC(=O)O)C(=O)N[C@@H](CC(C)C)C(=O)N[C@@H](CCCNC(=N)N)C(=O)N[C@@H](Cc1c[nH]cn1)C(=O)N[C@@H](Cc1ccc(O)cc1)C(=O)N[C@@H](Cc1ccc(O)cc1)C(=O)N[C@@H](CC(N)=O)C(=O)N[C@@H](Cc1c[nH]c2ccccc12)C(=O)N[C@@H](CC(C)C)C(=O)N[C@H](C(=O)N[C@@H](CCCNC(=N)N)C(=O)N[C@@H](CCC(N)=O)C(=O)N[C@@H](CCCNC(=N)N)C(=O)N[C@@H](Cc1ccc(O)cc1)C(N)=O)[C@@H](C)O)C(C)C` [Compound 77, N{alpha-4}-(3-methylbutanoyl)-N{epsilon-7}-[2-(2-{2-[2-(2-{2-[(4S)-4-carboxy-4-(17-carboxyheptadecanamido)butanamido]ethoxy}ethoxy)acetamido]ethoxy}ethoxy)acetamido]-[4A,7K,9E,14E,18Q,22V,23E,28Y,30W,31L]hPYY (4-36)], the inhibition constant Ki was 6.17 nM. As for `CC(C)CC(=O)N[C@@H](C)C(=O)N1CCC[C@H]1C(=O)N[C@@H](CCC(=O)O)C(=O)N[C@@H](CCCCNC(=O)COCCOCCNC(=O)COCCOCCNC(=O)CC[C@H](NC(=O)CCCCCCCCCCCCCCCCC(=O)O)C(=O)O)C(=O)N1CCC[C@H]1C(=O)N[C@@H](CCC(=O)O)C(=O)N[C@@H](C)C(=O)N[C@@H](CC(=O)O)C(=O)N[C@@H](C)C(=O)N[C@@H](CCC(=O)O)C(=O)N1CCC[C@H]1C(=O)N[C@@H](CCC(=O)O)C(=O)N[C@@H](CCC(=O)O)C(=O)N[C@@H](CC(C)C)C(=O)N[C@@H](CCC(N)=O)C(=O)N[C@@H](CCCNC(=N)N)C(=O)N[C@@H](Cc1ccc(O)cc1)C(=O)N[C@@H](Cc1ccc(O)cc1)C(=O)N[C@H](C(=O)N[C@@H](CO)C(=O)N[C@@H](CC(C)C)C(=O)N[C@@H](CCCNC(=N)N)C(=O)N[C@@H](Cc1c[nH]cn1)C(=O)N[C@@H](Cc1ccc(O)cc1)C(=O)N[C@@H](Cc1ccc(O)cc1)C(=O)N[C@@H](CC(N)=O)C(=O)N[C@@H](Cc1c[nH]c2ccccc12)C(=O)N[C@@H](CC(C)C)C(=O)N[C@H](C(=O)N[C@@H](CCCNC(=N)N)C(=O)N[C@@H](CCC(N)=O)C(=O)N[C@@H](CCCNC(=N)N)C(=O)N[C@@H](Cc1ccc(O)cc1)C(N)=O)[C@@H](C)O)[C@@H](C)O` [Compound 160, N{alpha-4}-(3-methylbutanoyl)-N{epsilon-7}-[2-(2-{2-[2-(2-{2-[(4S)-4-carboxy-4-(17-carboxyheptadecanamido)butanamido]ethoxy}ethoxy)acetamido]ethoxy}ethoxy)acetamido]-[4A,7K,9E,10A,13E,18Q,22T,28Y,30W,31L]hPYY (4-36)] (Isovaleryl-APEK([AEEA-AEEA-γGlu-C18 diacid])PEADAEPEELQRYYTSLRHYYNWLTRQRY-NH2), the figure is 2 nM.
